Experimental data as given in patent US20050222106A1, “Drospirenone-containing preparations for transdermal use” (priority 2004, published 2005).
“Also recorded” adds a separate entry of the source.

Experiments:
[1] = Permeation through human skin from the preparation of Example 1; assay type: in vitro ADME
Description: (§1) 200 mg of the preparation made according to Example 1 were applied to bare mouse skin, which were fixed in modified Franz permeation cells as a permeation membrane. The results for the average permeation values for testosterone and drospirenone in μg/cm^2 versus time after application are shown in FIG. 1. The average values are the average of seven experimental runs. The mouse skin used was hairless mouse skin, HsdCpb NMRI-nu/nu, Harlan Bioservice, Walsrode.
(§2) Acceptable Medium for the Franz Cells:
(§3) At 3, 6, 9, 12, 15 and 18 hours samples of 100 μl were removed by an automatic sampling system from the acceptor medium of the Franz cells and injected into an HPLC automatic analyzer.
The preparation from example 1 was tested on human skin (female belly skin from cosmetic reduction, dermatomized at a layer thickness of about 450 μm).
The skin permeation values or mass transport amount for drospirenone and testosterone as a function of time after application of the preparation to the skin are shown in FIG. 2. The open squares indicate the measured permeation values for testosterone in […]. The open circles indicate the permeation values for drospirenone. The vertical lines on the circles and squares are error bars indicating the experimental error.

[2] = Permeation of bare mouse skin in modified Franz permeation cells; assay type: in vitro ADME; conditions: aqueous ethanolic vehicle (preparation of Example 1, 200 mg), FIG. 1, average of seven runs
Description: as §1, §2, §3
The filled-in circles indicate the measured permeation values for testosterone in FIG. 1. The filled-in squares indicate the permeation values for drospirenone. The vertical lines on the circles and squares are error bars indicating the experimental error.

Structure (SMILES) | Mean cumulative Transport ([1]; human skin, preparation of Example 1, time 0 h) [μg/cm^2] | Mean cumulative Transport ([1]; human skin, preparation of Example 1, time 3 h) [μg/cm^2] | Mean cumulative Transport ([1]; human skin, preparation of Example 1, time 7 h) [μg/cm^2] | Mean cumulative Transport ([1]; human skin, preparation of Example 1, time 10 h) [μg/cm^2] | Mean cumulative Transport ([1]; human skin, preparation of Example 1, time 24 h) [μg/cm^2] | Mean cumulative Transport ([1]; human skin, preparation of Example 1, time 30 h) [μg/cm^2] | Mean cumulative Transport ([1]; human skin, preparation of Example 1, time 48 h) [μg/cm^2] | Permeation values relative to those of testosterone ([1]; female, human) | Mean cumulative Transport ([1]; female, human, 0 h) [μg/cm^2] | Mean cumulative Transport ([1]; female, human, 3 h) [μg/cm^2] | Mean cumulative Transport ([1]; female, human, 7 h) [μg/cm^2] | Mean cumulative Transport ([1]; female, human, 10 h) [μg/cm^2] | Mean cumulative Transport ([1]; female, human, 24 h) [μg/cm^2] | Mean cumulative Transport ([1]; female, human, 30 h) [μg/cm^2] | Mean cumulative Transport ([1]; female, human, 48 h) [μg/cm^2] | Permeation of mouse skin in vitro compared with testosterone [2]
C[C@]12CC[C@H]3[C@@H](CCC4=CC(=O)CC[C@@]43C)[C@@H]1CC[C@@H]2O [Testosterone] | 0.00 | 3.62 | 7.72 | 10.70 | 26.57 | 33.31 | 44.35 |  |  |  |  |  |  |  |  | 
C[C@]12CCC(=O)C=C1[C@@H]1C[C@@H]1[C@H]1[C@@H]3[C@@H]4C[C@@H]4[C@@]4(CCC(=O)O4)[C@@]3(C)CC[C@@H]12 [Drospirenone, drospirenone] |  |  |  |  |  |  |  | about 40% | 0.00 | 0.87 | 2.04 | 2.86 | 8.67 | 12.13 | 19.23 | approximately the same good extent as testosterone; also recorded: permeation values for testosterone are larger than those for drospirenone
